The results in this text go back to US10023568B2, “Naphthyridine derivatives useful as αvβ6 integrin antagonists” (GlaxoSmithKline Intellectual Property Development Limited, priority 2013, dated 2018).

A short description of one data set: physchem. Conditions: kinetic from dmso stock. The method, then: The Chemiluminescent nitrogen detection (CLND) kinetic solubility was measured according to N. Bhattachar et. al. J. Pharm. Biomed.
For data set [1], the target named is T1, human soluble αvβ6 protein (Homo sapiens, UniProt P06756+P18564).
T1 construct: The expressed protein contained amino acid 31-987 of αv followed by a Tev cleavage site; Tev cleavage site (C); 6His tag (C); Prescission protease site (C); FLAG tag (C); made in house; host or cells: baculovirus expression system (pFastBac dual construct)
Kind of data set: Fluorescence Polarisation Assay, binding of human soluble αvβ6 protein to an RGD-containing peptide. Conditions: read-out: affinity (pIC50) for the human αvβ6 protein in the Fluorescence Polarisation Assay (converted). An excerpt:
Binding of human soluble αvβ6 protein to an RGD-containing Peptide by Fluorescence Polarisation Assay:
The extracellular domains of αv and β6 were co-expressed from a pFastBac dual construct using the baculovirus expression system. […] The protein was secreted into the media on expression; it was purified using diafiltration followed by purification using the His tag followed by the FLAG tag and then size exclusion chromatography. […] A fluorescent binding peptide based on LAPβ3 was synthesised chemically, having the sequence Ac-[…](Cy3B)-NH2. An assay buffer of 25 mM HEPES pH7.4, 150 mM NaCl, 1 mM CHAPS and […] was used. To black low volume 384 well plates were added […] of test compound in 100% DMSO, followed by […] αvβ6 protein. Plates were incubated at room temperature for 15 minutes before addition of […] fluorescent RGD-containing peptide. […] For active antagonists in the assay, data were fitted to a 4 parameter logistic equation for IC50 determinations.
(Fluorescence polarisation rises when a labelled molecule tumbles more slowly, as on binding a larger partner.)

The next data set concerns the target T2, αvβ6 (Homo sapiens, UniProt P06756+P18564).
T2 construct: expressed in transfected cells; host or cells: K562-αvβ6
Kind of data set: Cell Adhesion Assay K562-αvβ6 (LAP-b1). Conditions: K562-αvβ6 cells, ligand LAP-b1, 2 mM MgCl2; read-out: affinity in the cell Adhesion Assays αvβ6 pIC50 (converted). In kind it is cell-based. The method, then: (§1) The following cell lines were used, with ligands in brackets: K562-α5β1 (Fibronectin), K562-αvβ3 (LAP-b1), K562-αvβ5 (Vitronectin), K562-αvβ6 (LAP-b1), K562-αvβ8 (LAP-b1). The divalent cation used to facilitate adhesion was 2 mM MgCl2. Adhesion was quantified by cell labelling with the fluorescent dye BCECF-AM (Life Technologies), where cell suspensions at 6×10^6 cells/mL were incubated with […] of 30 mM BCECF-AM at 37° C. for 10 minutes, before dispensing into the assay plate. At the assay conclusion cells that adhered were lysed using 50 μL/well of 0.5% Triton X-100 in H2O to release fluorescence. Fluorescence intensity was detected using an Envision® plate reader (Perkin Elmer). For active antagonists in the assay, data were fitted to a 4 parameter logistic equation for IC50 determinations.

For a further data set, the target named is T3, αvβ3 (Homo sapiens, UniProt P05106+P06756).
T3 construct: expressed in transfected cells; host or cells: K562-αvβ3
Kind of data set: Cell Adhesion Assay K562-αvβ3 (LAP-b1). In kind it is cell-based. As to conditions: K562-αvβ3 cells, ligand LAP-b1, 2 mM MgCl2; read-out: affinity in the cell Adhesion Assays αvβ3 pIC50 (converted). How it is done: as §1

In the next data set the target is T4, αvβ5 (Homo sapiens, UniProt P06756+P18084).
T4 construct: expressed in transfected cells; host or cells: K562-αvβ5
Kind of data set: Cell Adhesion Assay K562-αvβ5 (Vitronectin). As to conditions: K562-αvβ5 cells, ligand Vitronectin, 2 mM MgCl2; read-out: affinity in the cell Adhesion Assays αvβ5 pIC50 (converted). In kind it is cell-based. The method, then: as §1

In a further data set the target is T5, αvβ8 (Homo sapiens, UniProt P06756+P26012).
T5 construct: expressed in transfected cells; host or cells: K562-αvβ8
Kind of data set: Cell Adhesion Assay K562-αvβ8 (LAP-b1). It is filed as cell-based. As to conditions: K562-αvβ8 cells, ligand LAP-b1, 2 mM MgCl2; read-out: affinity in the cell Adhesion Assays αvβ8 pIC50 (converted). How it is done: as §1

Converted amounts (≈) assume the structure as drawn.

T2 sequence (P06756 31-1048): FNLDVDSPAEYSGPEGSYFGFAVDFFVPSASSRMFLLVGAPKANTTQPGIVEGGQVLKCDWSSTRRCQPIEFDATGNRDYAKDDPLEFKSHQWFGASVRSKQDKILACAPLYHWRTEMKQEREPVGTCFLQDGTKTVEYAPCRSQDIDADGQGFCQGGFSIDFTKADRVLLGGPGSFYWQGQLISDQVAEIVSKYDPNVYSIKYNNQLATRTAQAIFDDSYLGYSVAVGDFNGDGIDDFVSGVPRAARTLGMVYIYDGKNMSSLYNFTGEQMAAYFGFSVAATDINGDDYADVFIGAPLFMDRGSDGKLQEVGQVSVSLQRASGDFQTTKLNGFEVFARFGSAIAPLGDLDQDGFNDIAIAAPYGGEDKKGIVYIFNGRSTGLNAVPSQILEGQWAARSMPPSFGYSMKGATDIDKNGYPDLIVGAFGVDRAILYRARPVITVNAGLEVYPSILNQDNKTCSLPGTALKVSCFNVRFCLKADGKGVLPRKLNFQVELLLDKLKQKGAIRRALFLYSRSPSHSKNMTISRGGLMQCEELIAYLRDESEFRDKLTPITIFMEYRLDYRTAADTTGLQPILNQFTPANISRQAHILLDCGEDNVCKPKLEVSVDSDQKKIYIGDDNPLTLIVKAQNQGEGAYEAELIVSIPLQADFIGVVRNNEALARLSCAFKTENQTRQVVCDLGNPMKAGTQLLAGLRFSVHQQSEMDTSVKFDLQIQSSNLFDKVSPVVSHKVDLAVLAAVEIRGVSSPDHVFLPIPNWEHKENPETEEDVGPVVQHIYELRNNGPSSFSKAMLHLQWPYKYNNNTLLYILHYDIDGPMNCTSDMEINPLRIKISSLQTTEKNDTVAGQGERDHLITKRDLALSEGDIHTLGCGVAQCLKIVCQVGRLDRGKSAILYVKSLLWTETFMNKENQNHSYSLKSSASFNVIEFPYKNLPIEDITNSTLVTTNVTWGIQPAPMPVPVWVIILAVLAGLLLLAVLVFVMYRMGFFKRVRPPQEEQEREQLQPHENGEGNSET
T2 sequence (P18564 22-788): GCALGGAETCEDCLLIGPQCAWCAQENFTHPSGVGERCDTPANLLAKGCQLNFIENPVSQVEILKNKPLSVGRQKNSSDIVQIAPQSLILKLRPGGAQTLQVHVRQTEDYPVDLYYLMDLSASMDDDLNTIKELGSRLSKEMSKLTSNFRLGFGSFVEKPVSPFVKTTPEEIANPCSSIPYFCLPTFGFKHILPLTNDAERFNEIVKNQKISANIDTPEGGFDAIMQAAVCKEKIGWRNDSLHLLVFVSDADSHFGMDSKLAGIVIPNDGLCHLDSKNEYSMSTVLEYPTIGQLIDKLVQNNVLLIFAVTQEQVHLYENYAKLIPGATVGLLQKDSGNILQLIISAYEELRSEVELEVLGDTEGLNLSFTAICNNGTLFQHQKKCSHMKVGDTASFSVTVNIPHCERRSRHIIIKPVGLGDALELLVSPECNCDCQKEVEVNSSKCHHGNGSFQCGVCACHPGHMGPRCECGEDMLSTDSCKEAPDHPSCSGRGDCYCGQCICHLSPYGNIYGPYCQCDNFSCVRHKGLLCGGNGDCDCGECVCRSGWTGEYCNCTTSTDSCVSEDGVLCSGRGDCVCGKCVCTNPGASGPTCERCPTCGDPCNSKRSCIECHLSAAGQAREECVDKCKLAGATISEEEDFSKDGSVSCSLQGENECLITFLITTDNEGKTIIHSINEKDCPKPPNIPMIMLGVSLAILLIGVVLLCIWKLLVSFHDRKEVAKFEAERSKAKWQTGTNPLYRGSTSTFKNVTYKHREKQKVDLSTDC
T4 sequence (P06756 31-1048): as the sequence (P06756 31-1048) above
T4 sequence (P18084 24-799): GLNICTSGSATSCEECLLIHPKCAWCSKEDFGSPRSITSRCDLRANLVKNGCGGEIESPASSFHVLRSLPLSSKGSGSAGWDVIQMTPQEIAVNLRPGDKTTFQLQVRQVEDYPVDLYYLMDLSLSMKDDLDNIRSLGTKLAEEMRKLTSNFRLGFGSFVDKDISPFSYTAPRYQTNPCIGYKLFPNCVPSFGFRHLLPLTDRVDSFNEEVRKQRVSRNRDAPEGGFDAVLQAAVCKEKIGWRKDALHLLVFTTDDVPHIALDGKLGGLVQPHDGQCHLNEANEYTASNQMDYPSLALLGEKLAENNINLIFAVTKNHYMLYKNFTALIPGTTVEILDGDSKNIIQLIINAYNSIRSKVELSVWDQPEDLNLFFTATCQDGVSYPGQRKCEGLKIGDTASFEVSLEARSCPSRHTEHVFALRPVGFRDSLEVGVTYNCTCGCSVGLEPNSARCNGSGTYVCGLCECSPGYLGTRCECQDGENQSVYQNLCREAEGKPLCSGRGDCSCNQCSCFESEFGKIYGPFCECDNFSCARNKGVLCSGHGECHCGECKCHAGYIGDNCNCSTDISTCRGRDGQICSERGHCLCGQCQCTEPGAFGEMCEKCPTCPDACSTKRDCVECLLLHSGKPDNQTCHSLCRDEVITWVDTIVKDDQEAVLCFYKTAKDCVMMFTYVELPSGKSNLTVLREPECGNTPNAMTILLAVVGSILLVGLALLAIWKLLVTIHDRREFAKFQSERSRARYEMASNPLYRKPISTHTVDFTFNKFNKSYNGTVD
T5 sequence (P06756 31-1048): as the sequence (P06756 31-1048) above
T5 sequence (P26012 43-769): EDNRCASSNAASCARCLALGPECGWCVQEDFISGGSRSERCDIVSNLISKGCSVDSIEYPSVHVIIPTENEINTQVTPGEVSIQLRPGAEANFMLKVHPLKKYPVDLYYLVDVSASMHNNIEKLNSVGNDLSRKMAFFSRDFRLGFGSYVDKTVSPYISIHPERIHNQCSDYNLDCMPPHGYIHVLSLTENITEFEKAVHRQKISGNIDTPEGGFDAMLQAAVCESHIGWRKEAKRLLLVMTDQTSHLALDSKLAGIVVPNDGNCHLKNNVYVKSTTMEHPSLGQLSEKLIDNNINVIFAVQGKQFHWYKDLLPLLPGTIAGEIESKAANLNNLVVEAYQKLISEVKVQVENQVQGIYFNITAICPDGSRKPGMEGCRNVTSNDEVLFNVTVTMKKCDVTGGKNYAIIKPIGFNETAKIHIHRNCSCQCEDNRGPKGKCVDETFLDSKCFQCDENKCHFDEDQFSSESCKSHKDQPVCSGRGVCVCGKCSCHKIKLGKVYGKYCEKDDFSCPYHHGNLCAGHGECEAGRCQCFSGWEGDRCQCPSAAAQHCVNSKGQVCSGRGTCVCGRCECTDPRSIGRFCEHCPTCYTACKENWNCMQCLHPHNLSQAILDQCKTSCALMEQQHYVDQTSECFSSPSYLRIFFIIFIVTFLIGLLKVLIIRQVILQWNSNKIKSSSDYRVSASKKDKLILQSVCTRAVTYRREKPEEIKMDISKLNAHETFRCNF
T3 sequence (P06756 31-1048): as the sequence (P06756 31-1048) above
T3 sequence (P05106 27-788): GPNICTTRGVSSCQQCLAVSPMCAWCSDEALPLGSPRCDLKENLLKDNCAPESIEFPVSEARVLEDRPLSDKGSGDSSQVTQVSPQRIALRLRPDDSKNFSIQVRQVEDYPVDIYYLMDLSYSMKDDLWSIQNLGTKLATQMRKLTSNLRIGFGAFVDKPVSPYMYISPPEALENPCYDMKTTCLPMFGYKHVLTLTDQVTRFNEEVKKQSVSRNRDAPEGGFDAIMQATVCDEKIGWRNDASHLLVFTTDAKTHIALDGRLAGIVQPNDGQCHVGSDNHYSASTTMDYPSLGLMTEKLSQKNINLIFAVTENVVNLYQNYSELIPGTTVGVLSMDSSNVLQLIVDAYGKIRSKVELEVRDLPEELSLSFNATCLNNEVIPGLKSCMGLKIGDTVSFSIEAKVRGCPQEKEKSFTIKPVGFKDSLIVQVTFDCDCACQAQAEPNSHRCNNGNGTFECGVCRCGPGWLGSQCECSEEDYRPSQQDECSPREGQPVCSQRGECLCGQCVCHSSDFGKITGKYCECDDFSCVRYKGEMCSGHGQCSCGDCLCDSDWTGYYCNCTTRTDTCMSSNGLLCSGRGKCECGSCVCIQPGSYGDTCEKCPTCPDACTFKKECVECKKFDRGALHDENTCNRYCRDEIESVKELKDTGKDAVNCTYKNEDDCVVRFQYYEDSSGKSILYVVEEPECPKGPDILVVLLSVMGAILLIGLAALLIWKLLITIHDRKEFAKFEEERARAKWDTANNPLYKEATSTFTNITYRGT

As for `CCc1cc(C)nn1-c1cccc(C(CC(=O)O)CN2CC[C@@H](CCc3ccc4c(n3)NCCC4)C2)c1` (stereo partly drawn) [Example 3, 3-(3-(5-Ethyl-3-methyl-1H-pyrazol-1-yl)phenyl)-4-((R)-3-(2-(5,6,7,8-tetrahyrdro-1,8-naphthyridin-2-yl)ethyl)pyrrolidin-1-yl)butanoic acid], the kinetic solubility (usually the concentration staying in solution when a stock, usually in DMSO, is diluted into the medium) in “physchem” was determined as 276 µM (≈ 138 µg/mL). The IC50 in data set [1] was 6.31 nM; at αvβ6 it was 7.94 nM; at αvβ3, 1000 nM; at αvβ5, 126 nM; on αvβ8, 20 nM.

Take `O=C(O)CC(CN1CC[C@@H](CCc2ccc3c(n2)NCCC3)C1)c1cccc(-n2cccn2)c1` (stereo partly drawn) [Example 4, 3-(3-(1H-Pyrazol-1-yl)phenyl)-4-((R)-3-(2-(5,6,7,8-tetrahydro-1,8-naphthyridin-2-yl)ethyl)pyrrolidin-1-yl)butanoic acid]: the kinetic solubility in “physchem” is 388 µM (≈ 178 µg/mL).

As for `CCc1cc(CC)n(-c2cccc(C(CC(=O)O)CN3CC[C@@H](CCc4ccc5c(n4)NCCC5)C3)c2)n1` (stereo partly drawn) [Example 5, 3-(3-(3,5-Diethyl-1H-pyrazol-1-yl)phenyl)-4-((R)-3-(2-(5,6,7,8-tetrahydro-1,8-naphthyridin-2-yl)ethyl)pyrrolidin-1-yl)butanoic acid], the solubility (kinetic) in “physchem” was 470 µM (≈ 242 µg/mL). Besides, the IC50 is 15.8 nM in data set [1]; 7.94 nM on αvβ6; 794 nM at αvβ3; 251 nM at αvβ5; 39.8 nM on αvβ8.

Compound `Cc1nn(-c2cccc(C(CC(=O)O)CN3CC[C@@H](CCc4ccc5c(n4)NCCC5)C3)c2)c(C)c1F` (stereo partly drawn) [Example 6, 3-(3-(4-Fluoro-3,5-dimethyl-1H-pyrazol-1-yl)phenyl)-4-((R)-3-(2-(5,6,7,8-tetrahydro-1,8-naphthyridin-2-yl)ethyl)pyrrolidin-1-yl)butanoic acid] came in with a solubility (kinetic) in “physchem” of 437 µM (≈ 221 µg/mL). In addition, the IC50 in data set [1] was 20 nM; at αvβ6, 7.94 nM; on αvβ3 it was 1580 nM; at αvβ5, 251 nM; at αvβ8, 50.1 nM.
